# Test results reported in patent US9469650B2, “Melampomagnolide B derivatives” (BOARD OF TRUSTEES OF THE UNIVERSITY OF ARKANSAS, priority 2013, dated 2016).
# Experiments:
# UO-31 = assay: panel of 60 human tumor cell lines, growth inhibition (Renal Cancer); details: UO-31
# MCF7 = assay: panel of 60 human tumor cell lines, growth inhibition (Breast Cancer); details: MCF7
# BT-549 = assay: as above
# T-47D = assay: as above; details: T-47D
# IGROV1 = assay: panel of 60 human tumor cell lines, growth inhibition (Ovarian Cancer); details: IGROVI
# SK-OV-3 = assay: as above; details: SK-OV-3
# HOP-92 = assay: panel of 60 human tumor cell lines, growth inhibition (Non-Small Cell Lung Cancer); details: HOP-92
# NCI-H23 = assay: as above; details: NCI-H23
# NCI-H322M = assay: as above
# NCI-H460 = assay: as above; details: NCI-H460
# [1] = 81-549, Log10 Concentration −4.0
# [2] = 81-549, Log10 Concentration −5.0
# [3] = 81-549, Log10 Concentration −6.0
# [4] = 81-549, Log10 Concentration −7.0
# [5] = 81-549, Log10 Concentration −8.0
smiles,measurement,setting,value
C=C1C(=O)O[C@H]2[C@H]1CC/C(COC(=O)N1CCN(C)CC1)=C\CC[C@@]1(C)O[C@@H]21 [JVM 2-44],Percent Growth,UO-31; Log10 Concentration −5.0,19%
same,Mean Optical Densities,UO-31; Log10 Concentration −6.0,1.744
same,Percent Growth,UO-31; Log10 Concentration −6.0,80%
same,Mean Optical Densities,UO-31; Log10 Concentration −7.0,1.737
same,Percent Growth,UO-31; Log10 Concentration −7.0,79%
same,Mean Optical Densities,UO-31; Log10 Concentration −8.0,1.731
same,Percent Growth,UO-31; Log10 Concentration −8.0,79%
same,GI50,MCF7,3.14 µM
same,TGI,MCF7,1.44E−5
same,Mean Optical Densities,MCF7; Log10 Concentration −4.0,0.116
same,Percent Growth,MCF7; Log10 Concentration −4.0,−68%
same,Mean Optical Densities,MCF7; Log10 Concentration −5.0,0.561
same,Percent Growth,MCF7; Log10 Concentration −5.0,13%
same,Mean Optical Densities,MCF7; Log10 Concentration −6.0,1.725
same,Percent Growth,MCF7; Log10 Concentration −6.0,87%
same,Mean Optical Densities,MCF7; Log10 Concentration −7.0,1.666
same,Percent Growth,MCF7; Log10 Concentration −7.0,83%
same,Mean Optical Densities,MCF7; Log10 Concentration −8.0,1.767
same,Percent Growth,MCF7; Log10 Concentration −8.0,89%
same,TGI,BT-549; 81-549,1.81E−5
same,Mean Optical Densities,BT-549; [1],0.180
same,Percent Growth,BT-549; [1],−86%
same,Mean Optical Densities,BT-549; [2],1.522
same,Percent Growth,BT-549; [2],30%
same,Mean Optical Densities,BT-549; [3],1.985
same,Percent Growth,BT-549; [3],84%
same,Mean Optical Densities,BT-549; [4],1.951
same,Percent Growth,BT-549; [4],80%
same,Mean Optical Densities,BT-549; [5],2.028
same,Percent Growth,BT-549; [5],89%
same,GI50,T-47D,4.52 µM
same,TGI,T-47D,1.94E−5
same,Mean Optical Densities,T-47D; Log10 Concentration −4.0,0.323
same,Percent Growth,T-47D; Log10 Concentration −4.0,−56%
same,Mean Optical Densities,T-47D; Log10 Concentration −5.0,0.946
same,Percent Growth,T-47D; Log10 Concentration −5.0,23%
same,Mean Optical Densities,T-47D; Log10 Concentration −6.0,1.660
same,Percent Growth,T-47D; Log10 Concentration −6.0,102%
same,Mean Optical Densities,T-47D; Log10 Concentration −7.0,1.593
same,Percent Growth,T-47D; Log10 Concentration −7.0,94%
same,Mean Optical Densities,T-47D; Log10 Concentration −8.0,1.664
same,Percent Growth,T-47D; Log10 Concentration −8.0,102%
same,GI50,IGROV1,11.1 µM
same,TGI,IGROV1,2.99E−5
same,Mean Optical Densities,IGROV1; Log10 Concentration −4.0,0.249
same,Percent Growth,IGROV1; Log10 Concentration −4.0,−65%
same,Mean Optical Densities,IGROV1; Log10 Concentration −5.0,1.363
same,Percent Growth,IGROV1; Log10 Concentration −5.0,59%
same,Mean Optical Densities,IGROV1; Log10 Concentration −6.0,1.902
same,Percent Growth,IGROV1; Log10 Concentration −6.0,107%
same,Mean Optical Densities,IGROV1; Log10 Concentration −7.0,1.888
same,Percent Growth,IGROV1; Log10 Concentration −7.0,106%
same,Mean Optical Densities,IGROV1; Log10 Concentration −8.0,1.866
same,Percent Growth,IGROV1; Log10 Concentration −8.0,104%
same,GI50,SK-OV-3,31.8 µM
same,TGI,SK-OV-3,>1.00E−4
same,Mean Optical Densities,SK-OV-3; Log10 Concentration −4.0,1.032
same,Percent Growth,SK-OV-3; Log10 Concentration −4.0,4%
same,Mean Optical Densities,SK-OV-3; Log10 Concentration −5.0,1.852
same,Percent Growth,SK-OV-3; Log10 Concentration −5.0,96%
same,Mean Optical Densities,SK-OV-3; Log10 Concentration −6.0,1.892
same,Percent Growth,SK-OV-3; Log10 Concentration −6.0,101%
same,Mean Optical Densities,SK-OV-3; Log10 Concentration −7.0,1.808
same,Percent Growth,SK-OV-3; Log10 Concentration −7.0,91%
same,Mean Optical Densities,SK-OV-3; Log10 Concentration −8.0,1.885
same,Percent Growth,SK-OV-3; Log10 Concentration −8.0,100%
same,GI50,HOP-92,2.95 µM
same,TGI,HOP-92,1.48E−5
same,Mean Optical Densities,HOP-92; Log10 Concentration −4.0,0.116
same,Percent Growth,HOP-92; Log10 Concentration −4.0,−87%
same,Mean Optical Densities,HOP-92; Log10 Concentration −5.0,0.995
same,Percent Growth,HOP-92; Log10 Concentration −5.0,18%
same,Mean Optical Densities,HOP-92; Log10 Concentration −6.0,1.307
same,Percent Growth,HOP-92; Log10 Concentration −6.0,79%
same,Mean Optical Densities,HOP-92; Log10 Concentration −7.0,1.345
same,Percent Growth,HOP-92; Log10 Concentration −7.0,86%
same,Mean Optical Densities,HOP-92; Log10 Concentration −8.0,1.394
same,Percent Growth,HOP-92; Log10 Concentration −8.0,95%
same,GI50,NCI-H23,11.8 µM
same,TGI,NCI-H23,3.12E−5
same,Mean Optical Densities,NCI-H23; Log10 Concentration −4.0,0.244
same,Percent Growth,NCI-H23; Log10 Concentration −4.0,−60%
same,Mean Optical Densities,NCI-H23; Log10 Concentration −5.0,1.347
same,Percent Growth,NCI-H23; Log10 Concentration −5.0,58%
same,Mean Optical Densities,NCI-H23; Log10 Concentration −6.0,1.872
same,Percent Growth,NCI-H23; Log10 Concentration −6.0,100%
same,Mean Optical Densities,NCI-H23; Log10 Concentration −7.0,1.838
same,Percent Growth,NCI-H23; Log10 Concentration −7.0,97%
same,Mean Optical Densities,NCI-H23; Log10 Concentration −8.0,1.849
same,Percent Growth,NCI-H23; Log10 Concentration −8.0,98%
same,GI50,NCI-H322M,16.2 µM
same,TGI,NCI-H322M,5.44E−5
same,Mean Optical Densities,NCI-H322M; Log10 Concentration −4.0,0.569
same,Percent Growth,NCI-H322M; Log10 Concentration −4.0,−25%
same,Mean Optical Densities,NCI-H322M; Log10 Concentration −5.0,1.434
same,Percent Growth,NCI-H322M; Log10 Concentration −5.0,70%
same,Mean Optical Densities,NCI-H322M; Log10 Concentration −6.0,1.650
same,Percent Growth,NCI-H322M; Log10 Concentration −6.0,93%
same,Mean Optical Densities,NCI-H322M; Log10 Concentration −7.0,1.624
same,Percent Growth,NCI-H322M; Log10 Concentration −7.0,91%
same,Mean Optical Densities,NCI-H322M; Log10 Concentration −8.0,1.649
same,Percent Growth,NCI-H322M; Log10 Concentration −8.0,93%
same,GI50,NCI-H460,20.3 µM
same,TGI,NCI-H460,5.67E−5
same,Mean Optical Densities,NCI-H460; Log10 Concentration −4.0,0.202
same,Percent Growth,NCI-H460; Log10 Concentration −4.0,−28%
same,Mean Optical Densities,NCI-H460; Log10 Concentration −5.0,2.401
same,Percent Growth,NCI-H460; Log10 Concentration −5.0,84%
same,Mean Optical Densities,NCI-H460; Log10 Concentration −6.0,2.741
same,Percent Growth,NCI-H460; Log10 Concentration −6.0,98%
same,Mean Optical Densities,NCI-H460; Log10 Concentration −7.0,2.825
same,Percent Growth,NCI-H460; Log10 Concentration −7.0,101%
same,Mean Optical Densities,NCI-H460; Log10 Concentration −8.0,2.830
same,Percent Growth,NCI-H460; Log10 Concentration −8.0,101%
